Patent US20180161314A1, “Methods for Treating Hyperuricemia and Related Diseases” (Ardea Biosciences, Inc., priority 2010, published 2018)
Read-outs that look alike come from different tables or passages of the source.

Legend:
[1] = system: gout patients with hyperuricemia; format: in vivo; conditions: for Mean absolute sUA reduction / Mean sUA % change / Mean sUA level: ± SE; for % Response rate for sUA falling below 4 mg/dL / % Response rate for sUA falling below 5 mg/dL / % Response rate for sUA falling below 6 mg/dL: allopurinol 300 mg
Experimental: Study Objectives • To measure the effect of drug 1, alone and in combination with allopurinol, on serum urate concentration. • To evaluate the safety and tolerability of drug 1 in combination with allopurinol.
The study is open-label in gout patients with hyperuricemia, involving 2 panels of ˜10-12 patients per panel. The panels may be enrolled simultaneously.
Panel 1 receives a once-daily dose of allopurinol 300 mg alone for 7 days and for an additional 7 days in combination with a once-daily dose of drug 1 400 mg. Patients then receive 7 days of a once-daily dose of drug 1 400 mg alone. Panel 2 follows the same regimen as panel 1, at doses of allopurinol 300 mg and drug 1 600 mg.
• Day −10 to Day 28: colchicine prophylaxis; or • Day −7 to Day 28: colchicine prophylaxis (for patients not washing out from ULT) • Days 1-7: allopurinol 300 mg qd • Days 8-14: drug 1 400 mg qd+allopurinol 300 mg qd • Days 15-21: drug 1 400 mg qd
• Day −10 to Day 28: colchicine prophylaxis; or • Day −7 to Day 28: colchicine prophylaxis (for patients not washing out from ULT) • Days 1-7: allopurinol 300 mg qd • Days 8-14: drug 1 600 mg qd+allopurinol 300 mg qd • Days 15-21: drug 1 600 mg qd
Gout patients on a urate lowering therapy (ULT), have previously taken a ULT or who have never taken a ULT are eligible to participate. Screening procedures to determine patient eligibility are performed within approximately 14 days of the first dose of study drug (Day 1). Subjects currently on ULT wash-out for at least 10 days before Day 1, and begin colchicine (Colcry® 0.6 mg qd, URL Pharma) as prophylaxis for gout flares at the beginning of the wash-out period. Subjects not on ULT begin colchicine administration at least 7 days prior to Day 1. Patients intolerant of colchicine during the screening period are considered screen failures and not enrolled. Prophylactic administration of colchicine continues for 7 days after the last dose of study medication.
Eligible patients report to the study center early morning on Days −1, 7, 14, and 21 (or the afternoon/evening the day before). Serial blood samples are collected on Days −1, 7, 14, and 21. Study medication is administered to each patient and taken orally every morning with approximately 240 mL of water, at approximately the same time of the morning every day, and approximately 30 minutes after finishing a full breakfast (approximately 650 Kcal and 35% fat); the breakfast is standardized on Days −1 to 21.
Inclusion Criteria • Patient is male or post-menopausal or surgically sterile female. • Patient is 18-80 years of age. • Patient meets one or more criteria for the diagnosis of gout as per the American Rheumatism Association (ARA) Criteria for the Classification of Acute Arthritis of Primary Gout (Appendix B). • Patient sUA≥8 mg/dL at screening. • Patient willing and able to give informed consent and adhere to visit/protocol schedules • No clinically relevant abnormalities in blood pressure (BP), heart rate (HR), body temperature and respiratory rate as per Investigator's judgment.
Subject urate serum levels are recorded, and any safety concerns assessed (by adverse events, clinical laboratory test results, vital signs, 12-lead ECGs, and physical examinations). […] Urate serum concentrations are evaluated for treatment- and/or time-dependent changes relative to baseline (Day −1), and may be expressed both in standard units (mg/dL) and as changes from baseline (e.g., percent change, absolute change, maximal change, and time or day of maximal change).
Drug 1 was tested according to the protocol described in Example 21.
Serum urate levels were measured and absolute and % reduction levels from baseline calculated, for Allopurinol monotherapy, Drug 1 monotherapy and Allopurinol plus Drug 1 combination.

PNP = target: T1, PNP (Homo sapiens, UniProt P00491); conditions: cited from earlier work
T1 sequence (P00491 1-289): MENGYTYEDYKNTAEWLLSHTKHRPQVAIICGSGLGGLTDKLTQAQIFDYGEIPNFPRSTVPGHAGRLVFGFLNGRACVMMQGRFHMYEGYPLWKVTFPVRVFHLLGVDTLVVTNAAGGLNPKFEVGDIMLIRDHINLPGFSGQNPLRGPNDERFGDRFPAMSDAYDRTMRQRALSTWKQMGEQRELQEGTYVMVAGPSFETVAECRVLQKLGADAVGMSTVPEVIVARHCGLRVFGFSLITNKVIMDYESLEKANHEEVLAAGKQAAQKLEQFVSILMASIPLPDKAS

[2] = Drug 1 400 mg panel: allopurinol 300 mg qd days 1-7, combination days 8-14, drug 1 400 mg qd alone days 15-21
[3] = Drug 1 600 mg panel: allopurinol 300 mg qd days 1-7, combination days 8-14, drug 1 600 mg qd alone days 15-21

O=C(O)CSc1nnc(Br)n1-c1ccc(C2CC2)c2ccccc12 [Drug 1, Sodium 2-(5-bromo-4-(4-cyclopropylnaphthalen-1-yl)-4H-1,2,4-triazol-3-ylthio)acetate]
Mean absolute sUA reduction [1, 2]: -3.0 ± 0.46 mg/dL | Mean sUA % change [1, 2]: −30.2 ± 3.7% | Mean sUA level [1, 2]: 6.6 ± 0.22 mg/dL | % Response rate for sUA falling below 4 mg/dL ([1]; Drug 1 400 mg panel): 0% | % Response rate for sUA falling below 5 mg/dL ([1]; Drug 1 400 mg panel): 0% | % Response rate for sUA falling below 6 mg/dL ([1]; Drug 1 400 mg panel): 20% | Mean absolute sUA reduction [1, 3]: -3.3 ± 0.23 mg/dL | Mean sUA % change [1, 3]: −37.2 ± 2.6% | Mean sUA level [1, 3]: 5.7 ± 0.41 mg/dL | % Response rate for sUA falling below 4 mg/dL ([1]; Drug 1 600 mg panel): 0% | % Response rate for sUA falling below 5 mg/dL ([1]; Drug 1 600 mg panel): 33% | % Response rate for sUA falling below 6 mg/dL ([1]; Drug 1 600 mg panel): 67% | Inhibition of PNP (PNP): does not significantly inhibit
